Results published in US9302999B2, “Substituted triazoles as herbicides” (E. I. DU PONT DE NEMOURS AND COMPANY, priority 2012, dated 2016).

How the values were obtained:
Assay type in all cases: in vivo
[1] = test system: galium (catchweed bedstraw, Galium aparine); assay: Test C pre-/postemergence: galium
How it was run: (§1)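 Preemergence on seeds in loam/sand, postemergence on 2–18 cm (1–4-leaf) plants in peat-based medium; compounds in non-phytotoxic solvent with surfactant. After 13–15 days in greenhouse, visual rating versus controls, 0 (no effect) to 100 (complete control).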

[2] = test system: velvetleaf (Abutilon theophrasti); assay: Test A pre-/postemergence: velvetleaf; conditions: for Velvetleaf plant response rating: visual rating on 0 to 100 scale (0 no effect, 100 complete control), approximately ten days
How it was run: (§2)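 Injury was scored visually on a 0 (no effect) to 100 (complete control) scale versus untreated controls roughly ten days after treatment in the greenhouse. Compounds, formulated in surfactant-containing non-phytotoxic solvent, went on as soil-directed preemergence spray or postemergence to one- to two-leaf plants 2–10 cm tall.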

[3] = test system: soybean (Glycine max); assay: Test C pre-/postemergence: soybean
How it was run: as §1

[4] = test system: winter wheat (Triticum aestivum); assay: Test C pre-/postemergence: winter wheat
How it was run: as §1

[5] = test system: foxtail, giant (giant foxtail, Setaria faberii); assay: Test A pre-/postemergence: foxtail, giant; conditions: for Foxtail, Giant plant response rating: Postemergence; for Plant response rating, Foxtail, Giant: Preemergence
How it was run: as §2

[6] = test system: pigweed (Amaranthus retroflexus); assay: Test C pre-/postemergence: pigweed
How it was run: as §1

[7] = test system: foxtail, giant (giant foxtail, Setaria faberii); assay: Test C pre-/postemergence: foxtail, giant
How it was run: as §1

[8] = test system: velvetleaf (Abutilon theophrasti); assay: Test C pre-/postemergence: velvetleaf
How it was run: as §1

[9] = test system: lambsquarters (Chenopodium album); assay: Test C pre-/postemergence: lambsquarters
How it was run: as §1

[10] = test system: nutsedge, yellow (yellow nutsedge, Cyperus esculentus); assay: Test C pre-/postemergence: nutsedge, yellow
How it was run: as §1

[11] = test system: crabgrass, large (large crabgrass, Digitaria sanguinalis); assay: Test A pre-/postemergence: crabgrass, large; conditions: for Crabgrass, Large plant response rating: Postemergence; for Plant response rating, Crabgrass, Large: Preemergence
How it was run: as §2

[12] = test system: blackgrass (Alopecurus myosuroides); assay: Test C pre-/postemergence: blackgrass
How it was run: as §1

[13] = Postemergence, 31 g ai/ha, scale 0 to 100 (0 no effect, 100 complete control)
[14] = Postemergence, 62 g ai/ha, scale 0 to 100 (0 no effect, 100 complete control)
[15] = Postemergence, 125 g ai/ha, scale 0 to 100, 0 no effect, 100 complete control
[16] = Postemergence, 250 g ai/ha, scale 0 to 100
[17] = Preemergence, 31 g ai/ha, scale of 0 to 100, 0 is no effect, 100 is complete control
[18] = Preemergence, 62 g ai/ha, scale of 0 to 100, 0 is no effect, 100 is complete control
[19] = Preemergence, 125 g ai/ha, scale 0 to 100, 0 no effect, 100 complete control
[20] = Preemergence, 250 g ai/ha, scale 0 to 100, 0 no effect, 100 complete control
[21] = Postemergence, 125 g ai/ha, 0 to 100 scale, 0 is no effect, 100 is complete control
[22] = Preemergence, 125 g ai/ha, 0 to 100 scale where 0 is no effect and 100 is complete control
[23] = Preemergence, 500 g ai/ha, 0 to 100 scale (0 no effect, 100 complete control)
[24] = 125 g ai/ha, 0 to 100 scale, 0 is no effect, 100 is complete control
[25] = 500 g ai/ha, visual rating on 0 to 100 scale (0 no effect, 100 complete control), approximately ten days
[26] = 125 g ai/ha, 0 to 100 scale where 0 is no effect and 100 is complete control
[27] = 500 g ai/ha, 0 to 100 scale (0 no effect, 100 complete control)

Cc1nn(-c2ccc(F)c(F)c2)nc1Oc1ccnc(C(F)(F)F)c1 [Compound 145]
35: Plant response rating, Velvetleaf [8, 13] | Plant response rating, Velvetleaf [8, 14]
10: Plant response rating, Soybean [3, 20] | Plant response rating, Velvetleaf [8, 18] | Plant response rating, Nutsedge, Yellow [10, 14] | Plant response rating, Nutsedge, Yellow [10, 20] | Plant response rating, Blackgrass [12, 13]
50: Plant response rating, Velvetleaf [2, 22] | Plant response rating, Soybean [3, 13] | Plant response rating, Soybean [3, 14] | Plant response rating, Wheat [4, 20] | Plant response rating, Foxtail, Giant [7, 15] | Plant response rating, Velvetleaf [8, 15]
30: Plant response rating, Wheat [4, 15]
80: Plant response rating, Galium [1, 13] | Plant response rating, Galium [1, 14] | Plant response rating, Velvetleaf [2, 23]
15: Plant response rating, Wheat [4, 14] | Plant response rating, Foxtail, Giant [7, 13] | Plant response rating, Nutsedge, Yellow [10, 15] | Plant response rating, Nutsedge, Yellow [10, 16]
20: Plant response rating, Foxtail, Giant [7, 14]
100: Plant response rating, Galium [1, 19] | Plant response rating, Galium [1, 20] | Plant response rating, Velvetleaf [2, 21] | Velvetleaf plant response rating ([2]; Postemergence, 500 g ai/ha) | Foxtail, Giant plant response rating [5, 25] | Plant response rating, Foxtail, Giant [5, 26] | Plant response rating, Foxtail, Giant [5, 27] | Plant response rating, Pigweed [6, 20] | Plant response rating, Foxtail, Giant [7, 18] | Plant response rating, Foxtail, Giant [7, 19] | Plant response rating, Foxtail, Giant [7, 20] | Plant response rating, Crabgrass, Large [11, 26] | Plant response rating, Crabgrass, Large [11, 27]
95: Plant response rating, Galium [1, 16] | Plant response rating, Foxtail, Giant [7, 17] | Plant response rating, Lambsquarters [9, 13] | Plant response rating, Lambsquarters [9, 14] | Plant response rating, Lambsquarters [9, 15] | Plant response rating, Lambsquarters [9, 16] | Plant response rating, Lambsquarters [9, 19]
70: Plant response rating, Blackgrass [12, 15] | Plant response rating, Blackgrass [12, 16]
60: Plant response rating, Galium [1, 17] | Plant response rating, Soybean [3, 16] | Plant response rating, Velvetleaf [8, 16] | Plant response rating, Blackgrass [12, 14]
55: Plant response rating, Soybean [3, 15] | Plant response rating, Lambsquarters [9, 17]
0: Plant response rating, Velvetleaf [8, 17]
98: Plant response rating, Galium [1, 18] | Plant response rating, Pigweed [6, 14] | Plant response rating, Pigweed [6, 15] | Plant response rating, Pigweed [6, 16] | Plant response rating, Pigweed [6, 18] | Plant response rating, Pigweed [6, 19] | Plant response rating, Lambsquarters [9, 20]
75: Plant response rating, Velvetleaf [8, 19]
40: Plant response rating, Wheat [4, 16]
90: Plant response rating, Galium [1, 15] | Foxtail, Giant plant response rating [5, 24] | Plant response rating, Pigweed [6, 17] | Crabgrass, Large plant response rating [11, 24] | Crabgrass, Large plant response rating [11, 25] | Plant response rating, Blackgrass [12, 18] | Plant response rating, Blackgrass [12, 19] | Plant response rating, Blackgrass [12, 20]
85: Plant response rating, Pigweed [6, 13] | Plant response rating, Foxtail, Giant [7, 16] | Plant response rating, Velvetleaf [8, 20] | Plant response rating, Lambsquarters [9, 18] | Plant response rating, Blackgrass [12, 17]
5: Plant response rating, Soybean [3, 18] | Plant response rating, Soybean [3, 19] | Plant response rating, Wheat [4, 13] | Plant response rating, Wheat [4, 18] | Plant response rating, Wheat [4, 19] | Plant response rating, Nutsedge, Yellow [10, 13] | Plant response rating, Nutsedge, Yellow [10, 19]

Cc1nn(-c2ccc(F)c(C(F)(F)F)c2)nc1Oc1ccnc(C(F)(F)F)c1 [Compound 147]
70: Foxtail, Giant plant response rating [5, 24]
85: Plant response rating, Foxtail, Giant [7, 17] | Plant response rating, Blackgrass [12, 18]
5: Plant response rating, Wheat [4, 18]
55: Plant response rating, Velvetleaf [8, 18]
20: Plant response rating, Velvetleaf [2, 22] | Plant response rating, Soybean [3, 18] | Plant response rating, Soybean [3, 19]
35: Plant response rating, Soybean [3, 20] | Plant response rating, Lambsquarters [9, 17]
90: Velvetleaf plant response rating ([2]; Postemergence, 500 g ai/ha) | Crabgrass, Large plant response rating [11, 25] | Plant response rating, Blackgrass [12, 19] | Plant response rating, Blackgrass [12, 20]
30: Plant response rating, Wheat [4, 19]
100: Plant response rating, Galium [1, 17] | Plant response rating, Galium [1, 18] | Plant response rating, Galium [1, 19] | Plant response rating, Galium [1, 20] | Plant response rating, Foxtail, Giant [5, 26] | Plant response rating, Foxtail, Giant [5, 27] | Plant response rating, Pigweed [6, 17] | Plant response rating, Pigweed [6, 18] | Plant response rating, Pigweed [6, 19] | Plant response rating, Pigweed [6, 20] | Plant response rating, Foxtail, Giant [7, 19] | Plant response rating, Foxtail, Giant [7, 20] | Plant response rating, Velvetleaf [8, 20] | Plant response rating, Crabgrass, Large [11, 26] | Plant response rating, Crabgrass, Large [11, 27]
0: Plant response rating, Nutsedge, Yellow [10, 17] | Plant response rating, Nutsedge, Yellow [10, 18] | Plant response rating, Nutsedge, Yellow [10, 19]
45: Plant response rating, Wheat [4, 20] | Plant response rating, Lambsquarters [9, 18]
25: Plant response rating, Velvetleaf [8, 17]
15: Plant response rating, Nutsedge, Yellow [10, 20]
98: Plant response rating, Foxtail, Giant [7, 18]
60: Plant response rating, Velvetleaf [8, 19]
80: Foxtail, Giant plant response rating [5, 25] | Plant response rating, Lambsquarters [9, 19] | Plant response rating, Lambsquarters [9, 20] | Crabgrass, Large plant response rating [11, 24]
50: Plant response rating, Velvetleaf [2, 21] | Plant response rating, Velvetleaf [2, 23] | Plant response rating, Blackgrass [12, 17]
